The test system of experiment [1] is HeLa cells. Put plainly: cells. As to conditions: for HeLa Cells Alamar Blue: Supplementary Table 1; for viability at 500 µM: 65 h. Here is the method: (§1) Cytotoxic effects against HeLa and A549 cells were determined in a similar manner. Briefly, the cells were cultured in DMEM supplemented with 10% FCS and 2 mM L-Glutamine. Cells were plated at initial cell concentration of 2 × 10^4 cells/well and incubated with the compounds for ~65 hours prior to addition of Alamar Blue solution for a further 5 hours.
A general note: The colour change of resazurin is a common sign of viable cells or microbes.

Experiment [2] has as its system A549 cells. Put plainly: Cytotoxicity against A549 cells, Alamar Blue. To be noted: Supplementary Table 1, compound 0.5 mM, percentage of controls (n=1); for viability at 500 µM: Homo sapiens, A549, 65 h. The class given is cell-based. Here is the method:
as §1

[3] abbreviates: compound 0.5 mM, percentage of controls, mean ± SD (n=3) or SE (n=2).
The mark [4] stands for this setting: Homo sapiens, HeLa, read-out: HeLa Cells Alamar Blue.

Like-named read-outs stand apart in the source and are kept apart here.

As to `NCc1ccc2c(c1)OCCO2` [compound 306, 2,3‐dihydro‐1,4‐benzodioxin‐6‐ylmethylamine], in experiment [1] (setting [3]), the “HeLa Cells Alamar Blue” value is listed as 109.2 ± 5.6 percentage of controls. The “A549 Cells Alamar Blue” value in experiment [2] is 72.7 percentage of controls.

Take `Nc1ccc2c(c1)OCCCO2` [compound 308, 3,4‐dihydro‐2H‐1,5‐benzodioxepin‐7‐amine]: the “HeLa Cells Alamar Blue” value in experiment [1] (setting [3]) was 98.7 ± 6.1 percentage of controls. In experiment [2], the “A549 Cells Alamar Blue” value is listed as 82.8 percentage of controls.

Take `NCC1COc2ccccc2O1` (stereo not shown) [compound 309, 2,3‐dihydro‐1,4‐benzodioxin‐2‐ylmethylamine]: the “HeLa Cells Alamar Blue” value in experiment [1] (setting [3]) is 12.3 ± 8.8 percentage of controls. Moreover, in experiment [2], the “A549 Cells Alamar Blue” value is reported as 68.9 percentage of controls.

In the case of `Cn1c(=S)oc2ccccc21` [compound 310, 3‐methyl‐1,3‐benzoxazole‐2(3H)‐thione], the viability at 500 µM in experiment [1] (setting [4]) was found to be 103 ± 14.3%; in experiment [2], 104%.

For `OCc1nc2ccccc2s1` [compound 312, 1,3‐benzothiazol‐2‐ylmethanol], the viability at 500 µM in experiment [1] (setting [4]) worked out at 80.7 ± 16.2%; in experiment [2], 64.4%.

Consider `OCc1ccc(C(F)(F)F)o1` [compound 314, [5‐(trifluoromethyl)‐2‐furyl]methanol], for which the viability at 500 µM in experiment [1] (setting [4]) amounted to 114 ± 8.2%; in experiment [2] it was 76.9%.

Take `Cn1nc(O)cc1C(F)(F)F` [compound 316, 1‐methyl‐5‐(trifluoromethyl)‐1H‐pyrazol‐3‐ol]: in experiment [1] (setting [3]), the “HeLa Cells Alamar Blue” value was 111.8 ± 17.2 percentage of controls. Also, the “A549 Cells Alamar Blue” value in experiment [2] is listed as 95.3 percentage of controls.

Take `O=C1CCC(C(F)(F)F)CC1` [compound 317, 4‐(trifluoromethyl)cyclohexan‐1‐one]: the viability at 500 µM in experiment [1] (setting [4]) is 111 ± 7.2%; in experiment [2], 90.5%.

Regarding `O=C1CCOc2ccc(F)cc21` [compound 318, 6‐fluorochroman‐4‐one], the viability at 500 µM in experiment [1] (setting [4]) turned out to be 104 ± 16.4%; in experiment [2] it was 99%.

Regarding `OCC1COc2ccccc2O1` (stereo not shown) [compound 319, 2,3‐dihydro‐1,4‐benzodioxin‐2‐ylmethanol], in experiment [1] (setting [3]), the “HeLa Cells Alamar Blue” value was 102.6 ± 5.1 percentage of controls. Besides, the “A549 Cells Alamar Blue” value in experiment [2] is 86.4 percentage of controls.

As for `OCc1ccc2c(c1)OCCO2` [compound 320, 2,3‐dihydro‐1,4‐benzodioxin‐6‐ylmethanol], the “HeLa Cells Alamar Blue” value in experiment [1] (setting [3]) is 111.9 ± 16.4 percentage of controls. Also, the “A549 Cells Alamar Blue” value in experiment [2] is 78.8 percentage of controls.

As to `OCCc1ccc2c(c1)OCO2` [compound 321, 2‐(1,3‐benzodioxol‐5‐yl)ethanol], the viability at 500 µM stood at 109 ± 5.9% in experiment [1] (setting [4]) and 138% in experiment [2].

With `OCc1cccc2c1OCCO2` [compound 322, 2,3‐dihydro‐1,4‐benzodioxin‐5‐ylmethanol], the “HeLa Cells Alamar Blue” value in experiment [1] (setting [3]) is 100.4 ± 14.9 percentage of controls. Besides, the “A549 Cells Alamar Blue” value in experiment [2] is on record as 96.4 percentage of controls.

For the compound `CC12CC(=O)CC1(C)CC(=O)C2` (stereo not shown) [compound 324, 3a,6a‐dimethylperhydropentalene‐2,5‐dione], the “HeLa Cells Alamar Blue” value in experiment [1] (setting [3]) is 103.2 ± 21.9 percentage of controls. Also, the “A549 Cells Alamar Blue” value in experiment [2] was 94.2 percentage of controls.

With `CN(C(N)=S)c1ccccc1` [compound 325, N‐methyl‐N‐phenylthiourea], the viability at 500 µM in experiment [1] (setting [4]) is 33.9 ± 11.6%; in experiment [2], 82.7%. The CC50 in experiment [1] (Homo sapiens, HeLa, read-out: HeLa ED50) worked out at 415 ± 24 µM.

`Cc1ccccc1NC(N)=S` [compound 326, N‐(2‐methylphenyl)thiourea]: the viability at 500 µM in experiment [1] (Homo sapiens, HeLa, read-out: HeLa Cells Alamar Blue, Supplementary Table 1, compound 0.5 mM, percentage of controls, mean ± SD (n=3) or SE (n=2)) was found to be 111 ± 8.5%; in experiment [2], 125%.

On to `CC12CCC(CC1=NO)C2(C)C` (stereo not shown) [compound 332, 1,7,7‐trimethylbicyclo[2.2.1]heptan‐2‐one oxime], for which the “HeLa Cells Alamar Blue” value in experiment [1] (setting [3]) is reported as 110.6 ± 8.3 percentage of controls. In addition, the “A549 Cells Alamar Blue” value in experiment [2] is listed as 93.9 percentage of controls.

Consider `NC(=O)NCc1ccc(F)cc1` [compound 334, N‐(4‐fluorobenzyl)urea], for which the viability at 500 µM was determined as 112 ± 4.7% in experiment [1] (setting [4]) and 91.8% in experiment [2].

These data come from PMC3199943, “Screening the MayBridge Rule of 3 Fragment Library for Compounds That Interact with the Trypanosoma brucei myo-Inositol-3-Phosphate Synthase and/or Show Trypanocidal Activity” (Molecular Biology International, 2011).
